The target of the test is T1, BaCYP106A6 (Bacillus sp. (in: firmicutes), UniProt Z9J180VW61).
T1 construct: His-tagged, pET28a(+), E. coli C41(DE3); Co2+ resin; monomer; N-terminus MLKEVI and C-terminus NVYK deduced from printed primers; heme-ligating Cys356; unique Arg295
T1 sequence (Z9J180VW61 1-410): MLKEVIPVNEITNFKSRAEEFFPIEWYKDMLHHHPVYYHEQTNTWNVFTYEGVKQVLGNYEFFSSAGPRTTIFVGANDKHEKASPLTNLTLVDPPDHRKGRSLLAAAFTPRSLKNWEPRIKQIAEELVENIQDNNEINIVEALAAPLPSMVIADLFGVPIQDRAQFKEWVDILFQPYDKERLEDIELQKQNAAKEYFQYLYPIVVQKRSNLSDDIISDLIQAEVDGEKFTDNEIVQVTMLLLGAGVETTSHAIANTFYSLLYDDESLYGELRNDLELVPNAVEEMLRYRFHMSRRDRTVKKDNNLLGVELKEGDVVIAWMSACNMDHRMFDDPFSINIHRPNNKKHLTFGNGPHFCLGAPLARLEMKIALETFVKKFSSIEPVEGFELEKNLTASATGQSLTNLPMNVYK
The experiment in a line: UV-visible type I difference spectral titration. It counts as binding.

The structures appear in SMILES notation.

Broadly, the Kd is a measure of binding affinity in units of concentration. Higher therefore signals weaker binding. Consider `C[C@]12CCC(=O)C=C1CC[C@@H]1[C@@H]2CC[C@]2(C)C(=O)CC[C@@H]12` [androstenedione], for which the dissociation constant Kd was 36.6 µM. For `CC(=O)[C@H]1CC[C@H]2[C@@H]3CCC4=CC(=O)CC[C@]4(C)[C@H]3CC[C@]12C` [progesterone] the value was 38.4 µM.

The values above are taken from publication PMC10084758, “Crystal Structure and Biochemical Analysis of a Cytochrome P450 Steroid Hydroxylase (BaCYP106A6) from Bacillus Species” (Journal of Microbiology and Biotechnology, 2022).
